Where two headings read alike, the source gives them in different places.
Legend:
Primary Neurons = assay: HCS neurite outgrowth assay (High Content Screening with Primary Neurons); format: cell-based
[1] = test system: neurons from hippocampi of E18 rat embryos; assay: Neurite growth length (% NTL) in cultured E18 rat hippocampal neurons, 9-point dose response, 48 hours; format: cell-based; details: for activity at 0.078 µM / activity at 0.156 µM / activity at 0.312 µM / activity at 0.625 µM / activity at 1.25 µM / activity at 2.5 µM / activity at 5 µM / activity at 10 µM / activity at 20 µM: Rattus norvegicus, Neuron, 48 h
Protocol: PRE-COATING CULTURE PLATES: On the day before the experiment, 96-well plates were pre-coated by plating 50 μl of Poly-D-lysine solution (PDL, 0.5 mg/mL) in each well. The next morning, the plates were washed four or five times with HBSS or PBS (150 μl/rinse), then left in buffer until cell plating
PREPARING THE CELLS: A timed pregnant rat carrying E18 embryos was euthanized using an IACUC approved method. In a laminar flow hood, the embryos were removed and placed in a petri dish containing Hank's Balanced Salt Solution (HBSS) with 20 mM HEPES, pH 7.3. Pup brains were dissected (see Meberg et al., 2003) and hippocampi were collected in 15 mL a conical tube containing Hibernate E with SM1 (2% v/v).
Dissociation media was prepared by combining 4.5 mL of Hibernate E (without SM1) with 0.5 mL of trypsin and 100 μl of DNAse solution. The medium over the hippocampi was carefully removed and replaced with dissociation solution, then incubated at 37° C. for 15-20 minutes, occasionally swirling the tube.
Using flame polished cotton plugged Pasteur pipettes, the dissociation media was removed, and then 5 mL of Hibernate E containing SM1 were added. The tube was swirled to thoroughly wash the tissue. The tissue was allowed to settle to the bottom of the tube, and the rinse solution was carefully removed. This step was repeated 5 times to dilute out trypsin and DNAse and remove any debris from lysed cells.
The final rinse media was removed from the tube and 1 pipette-full (1-2 mL) of Hibernate E with SM1 was added. Using the flame-polished Pasteur pipette (pre-wetted with rinse media), the tube was triturated until all cells had dissociated and no visible chunks of tissue remained. Fewer than ten triturations were typically performed. The volume was adjusted to 8-12 mL using Hibernate E containing SM1, the well was mixed and cell concentration was determined.
PLATING: The cells were diluted in culture media (NbActiv4 Cell-culture media) to a final concentration of 10,000 cells/mL. The HBSS was aspirated from PDL coated plates, and 150 μL of cell solution was loaded in the middle 48 wells at 1500 cells per well. Water was loaded in the outer wells to decrease evaporation from edge wells. Cells were allowed to adhere for 2 hours in tissue culture incubator prior to treatment.
TREATMENT: Compounds were diluted to various concentrations to provide 9 dose response concentrations of 20 μM, 10 μM, 5, μM, 2.5 μM, 1.25 μM, 0.625 μM, 0.3125 μM, 0.15625 μM, and 0.078125 μM. The plates were cultured for 48 hours, exposed to the compound at the various dose response concentrations.
FIXING THE CULTURES: The culture medium was removed from the plates and immediately replaced with 100-200 μl of warm (37° C.) 4% paraformaldehyde (PFA) solution in phosphate-buffered saline (PBS). The cells were fixed for 15-20 minutes at room temperature, and then rinsed with PBS (200 μl/well×3).
STAINING AND IMAGING: The PBS was removed and replaced with 100 μl of blocking/permeabilization buffer (PBS, 0.2% fish gelatin, 0.03% Triton X-100, 0.02% NaN3), then incubated overnight at 4° C. To this was added 100 μl of primary antibody solution (mouse anti-Beta III tubulin in blocking buffer) and incubate overnight at 4° C. The wells were rinsed with PBS (200 μl×3), which was then removed and replaced with 100 μl of secondary antibody solution (Goat anti-mouse Alexa 488, 10 μg/ml Hoechst 33342, 0.2% fish gelatin, 0.02% azide, in PBS). The plate was shaken gently on a rotating shaker for 2 hours, then rinsed with PBS (200 μl×5).
The plate was imaged using a Cellomics ArrayScan VTI in 2 different channels for nuclear staining (Hoechst) and cell body/neurite staining (βIII-tubulin). Typically, nine fields per well were imaged with a 5× objective and automatically traced by the Neuronal Profiling Bioapplication. To get reproducible results, at least 200-300 valid neurons were measured per condition. […]

2-(4-(((3R,4R)-4-(isonicotinamido)pyrrolidin-3- yl)carbamoyl)benzoyl)-4-methoxyphenyl acetate [Example A89]
EC50 (Primary Neurons): 8.08 µM

2-(4-(((3R,4R)-4-(isonicotinamido)pyrrolidin-3- yl)carbamoyl)benzoyl)-4-methoxyphenyl benzoate [Example A87]
EC50 (Primary Neurons): 13.1 µM

O=C(N[C@@H]1CNC[C@H]1NC(=O)c1ccncc1)c1ccncc1 (stereo in doubt) [Example A10, N-[(3R,4R)-4-(pyridine-4-amido)pyrrolidin-3-yl]pyridine-4-carboxamide]
activity at 0.078 µM ([1]; 78 nM): 91.7%
activity at 0.156 µM ([1]; 156 nM): 91.2%
activity at 0.312 µM ([1]; 312 nM): 87.5%
activity at 0.625 µM ([1]; 625 nM): 88.2%
activity at 1.25 µM ([1]; 1.25 μM): 83.7%
activity at 2.5 µM ([1]; 2.5 μM): 82.9%
activity at 5 µM ([1]; 5 μM): 85.9%
activity at 10 µM ([1]; 10 μM): 86%
activity at 20 µM ([1]; 20 μM): 92.6%
EC50 (Primary Neurons; Primary neuron): 0.93 µM

O=C(N[C@@H]1CNC[C@H]1NC(=O)c1ccc(C(=O)c2ccccc2)cc1)c1ccncc1 (stereo in doubt) [Example A13, N-[(3R,4R)-4-(4-benzoylbenzamido)pyrrolidin-3-yl]pyridine-4-carboxamide]
activity at 0.078 µM ([1]; 78 nM): 99.5%
activity at 0.156 µM ([1]; 156 nM): 101%
activity at 0.312 µM ([1]; 312 nM): 97.7%
activity at 0.625 µM ([1]; 625 nM): 103%
activity at 1.25 µM ([1]; 1.25 μM): 106%
activity at 2.5 µM ([1]; 2.5 μM): 113%
activity at 5 µM ([1]; 5 μM): 120%
activity at 10 µM ([1]; 10 μM): 129%
activity at 20 µM ([1]; 20 μM): 147%
EC50 (Primary Neurons; Primary neuron): 4.96 µM

O=C(N[C@@H]1CNC[C@H]1NC(=O)c1ccncc1)c1ccccc1 (stereo in doubt) [Example A20, N-[(3R,4R)-4-benzamidopyrrolidin-3-yl]pyridine-4-carboxamide]
activity at 0.078 µM ([1]; 78 nM): 86.2%
activity at 0.156 µM ([1]; 156 nM): 81.5%
activity at 0.312 µM ([1]; 312 nM): 77.7%
activity at 0.625 µM ([1]; 625 nM): 86.1%
activity at 1.25 µM ([1]; 1.25 μM): 88.4%
activity at 2.5 µM ([1]; 2.5 μM): 90.2%
activity at 5 µM ([1]; 5 μM): 90.7%
activity at 10 µM ([1]; 10 μM): 93.8%
activity at 20 µM ([1]; 20 μM): 103%
EC50 (Primary Neurons; Primary neuron): 9.49 µM

COc1ccc(O)c(C(=O)c2ccc(C(=O)NC3CNC[C@H]3NC(=O)c3ccncc3)cc2)c1F (stereo in doubt) [Example A32, N-[(3R,4S)-4-[4-(2-fluoro-6-hydroxy-3-methoxybenzoyl)benzamido]pyrrolidin-3-yl]pyridine-4-carboxamide]
neurite growth length (% NTL) ([1]; 78 nM): 98.72 % NTL
neurite growth length (% NTL) ([1]; 156 nM): 86.89 % NTL
neurite growth length (% NTL) ([1]; 312 nM): 88.20 % NTL
neurite growth length (% NTL) ([1]; 625 nM): 84.61 % NTL
neurite growth length (% NTL) ([1]; 1.25 μM): 81.36 % NTL
neurite growth length (% NTL) ([1]; 2.5 μM): 90.59 % NTL
neurite growth length (% NTL) ([1]; 5 μM): 88.24 % NTL
neurite growth length (% NTL) ([1]; 10 μM): 82.90 % NTL
neurite growth length (% NTL) ([1]; 20 μM): 86.59 % NTL
EC50 (Primary Neurons): > 20 µM

COc1ccc(O)c(C(=O)c2ccc(C(=O)N[C@H]3CNC[C@@H]3NC(=O)c3ccncc3)cc2)c1F (stereo in doubt) [Example A34, N-[(3S,4S)-4-[4-(2-fluoro-6-hydroxy-3-methoxybenzoyl)benzamido]pyrrolidin-3-yl]pyridine-4-carboxamide]
neurite growth length (% NTL) ([1]; 78 nM): 102.90 % NTL
neurite growth length (% NTL) ([1]; 156 nM): 102.77 % NTL
neurite growth length (% NTL) ([1]; 312 nM): 92.06 % NTL
neurite growth length (% NTL) ([1]; 625 nM): 92.27 % NTL
neurite growth length (% NTL) ([1]; 1.25 μM): 95.84 % NTL
neurite growth length (% NTL) ([1]; 2.5 μM): 105.94 % NTL
neurite growth length (% NTL) ([1]; 5 μM): 110.06 % NTL
neurite growth length (% NTL) ([1]; 10 μM): 118.29 % NTL
neurite growth length (% NTL) ([1]; 20 μM): 130.91 % NTL
EC50 (Primary Neurons): 13 µM

COc1ccc(OC)c(C(=O)c2ccc(C(=O)Nc3ccncc3NC(=O)c3ccncc3)cc2)c1F [Example A1, N-{4-[4-(2-fluoro-3,6-dimethoxybenzoyl)benzamido]pyridin-3-yl}pyridine-4-carboxamide]
activity at 0.078 µM ([1]; 78 nM): 89.9%
activity at 0.156 µM ([1]; 156 nM): 89%
activity at 0.312 µM ([1]; 312 nM): 89.6%
activity at 0.625 µM ([1]; 625 nM): 91%
activity at 1.25 µM ([1]; 1.25 μM): 93.5%
activity at 2.5 µM ([1]; 2.5 μM): 85.8%
activity at 5 µM ([1]; 5 μM): 92.9%
activity at 10 µM ([1]; 10 μM): 87%
activity at 20 µM ([1]; 20 μM): 84.6%
EC50 (Primary Neurons; Primary neuron): 9.34 µM

COc1ccc(O)c(C(=O)c2ccc(C(=O)Nc3ccncc3NC(=O)c3ccncc3)cc2)c1F [Example A2, N-{4-[4-(2-fluoro-6-hydroxy-3-methoxybenzoyl)benzamido]pyridin-3-yl}pyridine-4-carboxamide]
activity at 0.078 µM ([1]; 78 nM): 93.8%
activity at 0.156 µM ([1]; 156 nM): 96.2%
activity at 0.312 µM ([1]; 312 nM): 84.6%
activity at 0.625 µM ([1]; 625 nM): 93%
activity at 1.25 µM ([1]; 1.25 μM): 88.9%
activity at 2.5 µM ([1]; 2.5 μM): 91.1%
activity at 5 µM ([1]; 5 μM): 94.1%
activity at 10 µM ([1]; 10 μM): 93.4%
activity at 20 µM ([1]; 20 μM): 100%
EC50 (Primary Neurons; Primary neuron): 1.81 µM

CCOc1ccc(O)c(C(=O)c2ccc(C(=O)N[C@@H]3CNC[C@H]3NC(=O)c3ccncc3)cc2)c1 [Example A90, N-((3R,4R)-4-(4-(5-ethoxy-2-hydroxybenzoyl)benzamido)pyrrolidin-3-yl)isonicotinamide]
EC50 (Primary Neurons; Primary neuron): 1.79 µM

O=C(N[C@@H]1CNC[C@H]1NC(=O)c1ccc(C(=O)c2cc(F)ccc2O)cc1)c1ccncc1 [Example A91, N-((3R,4R)-4-(4-(5-fluoro-2-hydroxybenzoyl)benzamido)pyrrolidin-3-yl)isonicotinamide]
EC50 (Primary Neurons; Primary neuron): 3.41 µM

O=C(N[C@@H]1CNC[C@H]1NC(=O)c1ccc(C(=O)c2cc(-c3ccccc3)ccc2O)cc1)c1ccncc1 [Example A93, N-((3R,4R)-4-(4-(4-hydroxy-[1,1′-biphenyl]-3-carbonyl)benzamido)pyrrolidin-3-yl)isonicotinamide]
EC50 (Primary Neurons; Primary neuron): 13.3 µM

COc1ccc(O)c(C(=O)c2ccc(C(=O)N[C@@H]3CCCNC[C@H]3NC(=O)c3ccncc3)cc2)c1F [Example A94, N-((3R,4R)-4-(4-(2-fluoro-6-hydroxy-3-methoxybenzoyl)benzamido)azepan-3-yl)isonicotinamide]
EC50 (Primary Neurons; Primary neuron): 0.813 µM

CCc1ccc(O)c(C(=O)c2ccc(C(=O)N[C@@H]3CNC[C@H]3NC(=O)c3ccncc3)cc2)c1 [Example A95, N-((3R,4R)-4-(4-(5-ethyl-2-hydroxybenzoyl)benzamido)pyrrolidin-3-yl)isonicotinamide]
EC50 (Primary Neurons; Primary neuron): 9.77 µM

O=C(N[C@@H]1CNC[C@H]1NC(=O)c1ccc(C(=O)c2cc(OC(F)(F)F)ccc2O)cc1)c1ccncc1 [Example A96, N-((3R,4R)-4-(4-(2-hydroxy-5-(trifluoromethoxy)benzoyl)benzamido)pyrrolidin-3-yl)isonicotinamide]
EC50 (Primary Neurons; Primary neuron): 1.45 µM

O=C(N[C@@H]1CNC[C@H]1NC(=O)c1ccc(C(=O)c2cc(OCc3ccccc3)ccc2O)cc1)c1ccncc1 [Example A97, N-((3R,4R)-4-(4-(5-(benzyloxy)-2-hydroxybenzoyl)benzamido)pyrrolidin-3-yl)isonicotinamide]
EC50 (Primary Neurons; Primary neuron): 11.3 µM

CC(C)(C)Oc1ccc(O)c(C(=O)c2ccc(C(=O)N[C@@H]3CNC[C@H]3NC(=O)c3ccncc3)cc2)c1 [Example A98, N-((3R,4R)-4-(4-(5-(tert-butoxy)-2-hydroxybenzoyl)benzamido)pyrrolidin-3-yl)isonicotinamide]
EC50 (Primary Neurons; Primary neuron): 9.97 µM

O=C(N[C@@H]1CNC[C@H]1NC(=O)c1ccc(C(=O)c2cc(C(F)(F)F)ccc2O)cc1)c1ccncc1 [Example A99, N-((3R,4R)-4-(4-(2-hydroxy-5-(trifluoromethyl)benzoyl)benzamido)pyrrolidin-3-yl)isonicotinamide]
EC50 (Primary Neurons; Primary neuron): 2.36 µM
